Assay results: article PMC9166630, “SAR Probing of KX2-391 Provided Analogues With Juxtaposed Activity Profile Against Major Oncogenic Kinases” (Frontiers in Oncology, 2022)

Tested on: AKT 1/2/3
Assay: Human phosphokinase array, AKT 1/2/3
Type: cell-based
Description: The kinome tree representation (Figure 7C), which was generated by raising the Kinase Score cut-off to >1.2, confirmed that, unlike tirbanibulin and our prototype molecule KX1-136, 4e’s effects were more observable on kinases other than the Src family such as the Eph and TEC families. […] Therefore, we screened compound 4e using the Human Phospho-Kinase Array® kit from R&D systems (Minneapolis, MN, USA). In this system, 35 phosphorylated YK and serine-threonine kinase (STK) enzymes in the untreated (control) and treated (test) HL60 cell lysates were captured on nitrocellulose membrane, pre-spotted with phosphokinase-specific capture antibodies, and then visualized by detection antibody cocktails (Figure 8). The difference in the spot intensity between untreated (control) and treated cells is proportional to change in the amount of the phosphorylated protein induced by 4e.
The phosphorylation profile of 48 kinases was performed using the Proteome Profiler Human Phospho-Kinase Antibody Array Kit by R&D Systems (Minneapolis, MN, USA) according to the protocol. Briefly, the total cellular protein was extracted using the Lysis buffer and was quantified using Bio-Rad DC Protein Assay kit (Hercules, CA, USA). Nitrocellulose membrane set (A&B), pre-spotted with kinase-specific capture antibodies, were first blocked with Array Buffer-1 at RT for 30 min on a rocking platform shaker. Approximately 600 µg of protein concentrate was diluted in the buffer provided and was added onto the membrane set, and the membranes were incubated overnight at 4°C in an 8-well plate. Subsequently, membranes were washed with Wash Buffer and incubated with appropriate Detection Antibody cocktails for 2 h at RT. Streptavadin-HRP (1:2000) was added onto membranes and incubated for 30 min at RT. Membranes were washed, and Chemiluminescent Detection Reagents 1&2 were applied in equal volumes for detection. The signals were detected on C-DiGit®Blot Scanner (LI-COR, Odyssey Imaging Systems, Lincoln, Nebraska, USA) using Image Studio 5.0 software.

`O=C(Cc1ccc(NC(=O)c2cccc(Cl)c2)cc1)NCc1ccccc1` [Compound 4e, N-(4-(2-(benzylamino)-2-oxoethyl)phenyl)-3-chlorobenzamide] was tested, and the “increased phosphorylation of Akt1/2/3 at Thr308 and Ser473 compared to control” value (HL60, versus no treatment) was > 117 fold, the “phosphokinase signal after 4e exposure, AKT 1/2/3” value (HL60 cell lysate, treated) was 22.29 and the “% Change, AKT 1/2/3” value (treated vs untreated HL60) was 11783.08%. For the same molecule, the “Change in Signal, AKT 1/2/3” value (treated vs untreated HL60) was 22.10.
